The test system of assay [1] is PC12 cells. The assay can be described thus: Fluorescence determination of number of living cells and amount of neurite outgrowth (neurite outgrowth staining kit). In kind it is cell-based. Particulars: NGF added section (100 ng/mL). The procedure: (§1) A test was carried out at five concentrations (1.6, 8, 40, 200 and 1,000 μg/mL) of 1,5-AG. Stated more specifically, a 1,5-AG aqueous solution having a concentration of 100 mg/mL was diluted with water to prepare 100 times-concentrated solutions having concentrations of 0.16, 0.8, 4, 20 and 100 mg/mL. These 100 times-concentrated solutions were each added to a test medium in a ratio of 1/100 to achieve final concentrations of 1.6, 8, 40, 200 and 1,000 μg/mL and sterilized with a filter to be used in the test. As a negative control, water was added to a medium in a ratio of 1/100 and sterilized with a filter to be used in the test. As a positive control, a test medium containing a 100 ng/mL nerve growth factor (NGF) was used.
(§2) A growth medium was used to adjust the cells to a concentration of 2.0×10^3 cells/100 μL/well, and the cells were scattered in a collagen-coated 96-well plate to be cultured in a CO2 incubator (5% CO2, 37° C., moistening) for 24 hours. After culture, the medium was replaced by a sample-containing test medium (100 μL), and the cells were cultured in a CO2 incubator for 96 hours. After the end of culture, an image of the cells in each well was taken with a phase difference microscope and used for the measurement of nuetrite outgrowth rate, and nuclei and cytoplasms were fluorescent dyed by using a neurite outgrowth staining kit to measure the number of living cells and the amount of neurite outgrowth. These procedures were carried out five times each.
After the end of culture, the number of living cells and the amount of neurite outgrowth were determined by using a neurite outgrowth staining kit. Stated more specifically, after the medium was removed, 100 μL of a staining solution (prepared by diluting Cell Viability Indicator and Cell Membrane Stain attached to the kit with calcium magnesium-containing PBS 1,000 times) was added to each well to incubate the cells at 37° C. for 20 minutes. After incubation, the staining solution was removed, 100 μL of a background suppression solution (prepared by diluting the background suppression dye attached to the kit with calcium magnesium-containing PBS 100 times) was added to each well so as to measure fluorescence intensity with a micro plate reader (measurement of the number of living cells: excitation wavelength of 495 nm, fluorescence wavelength of 515 nm, measurement of the amount of neurite outgrowth: excitation wavelength of 555 nm, fluorescent wavelength of 565 nm).

Assay [2] has as its system PC12 cells. The assay is described as follows: Determination of neurite outgrowth rate in PC12 cells (image count). Particulars: NGF added section (100 ng/mL), 96 hours. In kind it is cell-based. Here is the method:
PSG-1 belongs to an immunoglobulin super family which includes some having the function of promoting neurogenesis. Then, the influence of 1,5-AG upon neuritogenesis was investigated. This was evaluated in a test system using PC12 cells which are generally used for the evaluation of neuritogenesis.
PC12 cells (Lot No. 48, Lot No. 51) (RIKEN cell bank, material 1)
DMEM medium prepared by adding 0.1% of FBS, 0.1% of HS, 1 ng/mL NGF and 1% of penicillin-streptomycin
PC12 cells were initiated in a T-75 flask by using a growth medium to be cultured in a CO2 incubator (5% CO2, 37° C., moistening). Medium exchange was carried out every 2 days, the cells were collected when 80% confluence was reached, and cells having a passage number of 2 were used in this test. Stated more specifically, after the cells were washed with D-PBS (−), the cells were separated by using 0.05% trypsin, and a growth medium was added to neutralize trypsin. Then, the supernatant was removed by centrifugation (180 g, 5 minutes), a growth medium was added to stir the cells, the number of the cells was counted by using a corpuscle calculating board, and a growth medium was used to achieve a target concentration (2.0×10^3 cells/100 μL).
as §1, §2
Based on the image taken above, the total number of cells, the number of cells showing the same or higher neurite outgrowth than the cell length and the number of cells showing neurites having a length 2 times or more than the cell length were measured from the image of the cells. The percentage (%) of cells showing neurite outgrowth was calculated from the measurement values.

This note sets out measurements from patent publication US20170223976A1, “MODIFIED MILK POWDER CONTAINING 1,5-ANHYDRO-D-GLUCITOL” (NIHON STARCH CO., LTD., priority 2015, published 2017).

Take “NGF: positive control: a test medium containing a 100 ng/mL nerve growth factor (NGF) [reference compound]”: the “amount of neurite outgrowth per cell as compared with the non-added section” value in assay [1] is 183.1%. In addition, in assay [2], the “cells showing a neurite outgrowth rate of 1 time or more” value is 68.8% and the “cells showing a neurite outgrowth rate of 2 times or more” value is reported as 54.5%.
